# Measured values reported in patent US20230060873A1, “COMPOUNDS AND METHODS FOR FORMING ION CHANNELS IN BIOLOGICAL MEMBRANES” (Washington University, priority 2021, published 2023).
# Experiments:
# Bacillus subtilis = assay: Toxicity (MIC) of MAcBCE and MAkBCE compounds on B. subtilis; format: cell-based; conditions: B. subtilis 168 WT with pRB374, 12 h, up to 400 μM
# Method: XL1 blue strain Escherichia coli cells transformed with pET28a plasmid containing a kanamycin resistance gene, were grown at 37° C. in 2 mL of LB medium (Miller's LB broth, Research Products International) supplemented with 50 μg/mL of kanamycin, until the optical density (OD600) reached 0.6. The starting density of bacteria in the remainder of the experiments was a 1/100 dilution of this bacterial density, which was split into 4 mL cultures. A series of 400, 100, 10 and 5 mM stock solutions of each monoacylated benzo(crown-ether) (MAcBCE) and monoalkylated benzo(crown-ether) (MAkBCE) compounds in trifluoroethanol (TFE) were diluted by addition to the 4 mL cultures to reach final concentrations of 400, 200, 100, 50, 20, 15, 10, 5, 4, 3, 2 and 1 μM. The final TFE concentration was never higher than 0.1% v/v. Negative controls in the presence of TFE 0.1% v/v or in the absence of any treatment for each batch gave similar bacterial growth. The cultures were incubated at 37° C. with agitation for 12 h. Bacillus subtilis (168 WT) toxicity tests were carried out using an identical protocol, except they were transformed with the shuttle plasmid pRB374 in the presence of 5 μg/mL of kanamycin. […] Each compound was assayed a minimum of three times at each tested concentration.
# The cytotoxicity of MABCE compounds was determined by measuring the MIC in liquid cultures of either the gram-negative bacteria Escherichia coli or the gram-positive bacteria Bacillus subtilis. […] As some curves overlap, portions of them are hidden. Values of MIC of 400 μM indicate that the value was either 400 μM, or it was higher and then was not determined. Each compound was assayed a minimum of three times at each different concentration. MICs for 5-A-4, 5-A-11, 6-A-11 and 6-O-11 could not be determined because the compounds were not soluble in TFE. While E. coli was not susceptible to any of the tested compounds at concentrations as high as 400 μM (data not shown), B. subtilis was susceptible to MABCE compounds bearing 15-crown-5 and 18-crown-6 scaffolds, but not to compounds containing a 12-crown-4 scaffold, as shown in FIG. 1.
# [1] = Reversal potential and permeability ratio under bi-ionic conditions (voltage ramps); format: biochemical; conditions: 10 μM; for permeability ratio pK/pNa: Goldman-Hodgkin-Katz equation from reversal potential; for estimated reversal potential: internal 180 mM NaCl, 20 mM KCl, external 20 mM NaCl, 180 mM KCl, n=6
# Method: This can be determined by measuring the reversal potential under bi-ionic conditions and by applying rapid voltage ramps to measure reversal from open channels. For the determination of permeability ratios, a voltage protocol (detailed below) was applied 100 times to the membrane, while a gradient of ions was set through the membrane (internal solution: 180 mM NaCl, 20 mM KCl, 30 mM HEPES, pH adjusted to 7.4 with NaOH; external solution: 20 mM NaCl, 180 mM KCl, 30 mM HEPES, pH adjusted to 7.4 with NaOH). The protocol started from the holding potential (0 mV), followed by a jump to 100 mV during 100 ms, then a ramp of 1000 ms until −100 mV, maintenance of the voltage at −100 mV for 100 ms before returning to the initial 0 mV holding potential. Calculation of the variance at every isochrone allowed determination of the reversal potential (Vrev) as the voltage at which the variance is minimized. The permeability ratio for
# was calculated from the Goldman-Hodgkin-Katz (GHK) equation by assuming that reversal potential is the equilibrium membrane voltage reached by a selective membrane in the presence of that gradient of ions. This leads to the equation 1: […]
# where F is the Faraday constant, R is the gas constant, T is the absolute temperature, [K^+]i, and [K^+]e are the internal and external K^+ concentrations, respectively, and [Na^+]i, and [Na^+]e are the internal and external Na^+ concentrations, respectively.
# Multiple voltage ramps (N=100) from +100 mV to −100 mV were applied in the presence of 10 μM 6-A-10 (FIG. 18) and 10 μM 6-O-10 (FIG. 20). The reversal potential for each case was determined as that voltage which produces the minimum of variance (FIGS. 19 and 21). In FIGS. 19 and 21, the curves are the variance calculated from experiments in FIGS. 18 and 20, respectively.
# In these experiments, the internal concentration of Na^+ in the pipette was 9-fold higher than the external concentration, whereas the K^+ gradient was reversed (internal solution: 180 mM NaCl, 20 mM KCl, 30 mM HEPES, pH 7.4; external solution: 20 mM NaCl, 180 mM KCl, 30 mM HEPES, pH 7.4). If the channels are K^+ selective, the reversal potential will be close to the K^+ Nernst potential, which is 58 mV. In contrast, if the channels are highly Na^+ selective, then the reversal potential will be close to the Na^+ Nernst potential (−58 mV).
Compound,"toxicity / susceptibility of B. subtilis (MIC, FIG. 1) (Bacillus subtilis)",permeability ratio pK/pNa [1],estimated reversal potential [1] [mV]
"CCCCCCCCCC(=O)c1ccc2c(c1)OCCOCCOCCOCCOCCO2 [Compound 6-O-10, 1-(2,3,5,6,8,9,11,12,14,15-decahydrobenzo[b][1,4,7,10,13,16]hexaoxacyclooctadecin-18-yl)decan-1-one]",most toxic,1.3,6.5±0.6
"CCCCCCCCCCc1ccc2c(c1)OCCOCCOCCOCCOCCO2 [Compound 6-A-10, 18-decyl-2,3,5,6,8,9,11,12,14,15-decahydrobenzo[b][1,4,7,10,13,16]hexaoxacyclooctadecine]",most toxic,1.4,8.0±0.8
